Where a name gives a salt, the structure may show the parent alone.

From patent publication US11453683B1, “KRas G12D inhibitors” (Mirati Therapeutics, Inc., priority 2019, dated 2022) come the findings set out here.

This assay relates to KRas G12D-mediated phosphorylation of ERK. Description: Inhibition of KRas G12D-mediated phosphorylation of ERK in AGS cells. The class given is cell-based. Conditions: Homo sapiens; AGS cells expressing G12D, 3 hours, phospho-ERK normalized to GAPDH. An outline of the steps:
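In-cell Western: p-ERK Thr202/Tyr204 signal over GAPDH, as % of DMSO control, with IC50 from a 4-parameter curve. AGS cells seeded 40,000/well for 12-14 h, exposed to compound 3 h at 0.5% DMSO final, then formaldehyde-fixed and methanol-permeabilized.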
The compound `C[C@H]1CN2CCC[C@@]2(COc2nc(N3CC4CCC(C3)N4)c3cnc(-c4cccc5cccc(Cl)c45)c(F)c3n2)C1` (stereo in doubt) [Example 227, 4-((1R,5S)-3,8-diazabicyclo[3.2.1]octan-3-yl)-7-(8-chloronaphthalen-1-yl)-8-fluoro-2-((2-methyltetrahydro-1H-pyrrolizin-7a(5H)-yl)methoxy)pyrido[4,3-d]pyrimidine bis-hydrochloride] showed an IC50 of 2.98 µM.
In the case of `Oc1cc(-c2ncc3c(N4C[C@H]5CC[C@@H](C4)N5)nc(OC[C@@H]4CC5CCN4C5)nc3c2F)c2ccccc2c1` [Example 40, 4-(2-(((2S)-1-azabicyclo[2.2.1]heptan-2-yl)methoxy)-4-((1R,5S)-3,8-diazabicyclo[3.2.1]octan-3-yl)-8-fluoropyrido[4,3-d]pyrimidin-7-yl)naphthalen-2-ol], 4.24 µM corresponded to half-maximal inhibition (IC50).
`CCO[C@@H]1C[C@@H](COc2nc(N3C[C@H]4CC[C@@H](C3)N4)c3cnc(-c4cccc5cccc(Cl)c45)c(F)c3n2)N(C)C1` [Example 43, 4-((1R,5S)-3,8-diazabicyclo[3.2.1]octan-3-yl)-7-(8-chloronaphthalen-1-yl)-2-(((2S,4R)-4-ethoxy-1-methylpyrrolidin-2-yl)methoxy)-8-fluoropyrido[4,3-d]pyrimidine] had an IC50 of 6.2 µM.
For `COCCO[C@@H]1C[C@@H](COc2nc(N3C[C@H]4CC[C@@H](C3)N4)c3cnc(-c4cccc5cccc(Cl)c45)c(F)c3n2)N(C)C1` [Example 202, 4-((1R,5S)-3,8-diazabicyclo[3.2.1]octan-3-yl)-7-(8-chloronaphthalen-1-yl)-8-fluoro-2-(((2S,4R)-4-(2-methoxyethoxy)-1-methylpyrrolidin-2-yl)methoxy)pyrido[4,3-d]pyrimidine] the value was 10.2 µM.
As for `COCCCOc1nc(N2C[C@H]3CC[C@@H](C2)N3)c2cnc(-c3cc(O)cc4ccccc34)c(F)c2n1` [Example 68, 4-(4-((1R,5S)-3,8-diazabicyclo[3.2.1]octan-3-yl)-8-fluoro-2-(3-methoxypropoxy)pyrido[4,3-d]pyrimidin-7-yl)naphthalen-2-ol], the figure is 7.53 µM; as for `CN1C[C@H](OC(=O)NCCOCc2ccc(O)cc2)C[C@H]1COc1nc(N2C[C@H]3CC[C@@H](C2)N3)c2cnc(-c3cccc4cccc(Cl)c34)c(F)c2n1` [Example 260, (3R,5S)-5-(((4-((1R,5S)-3,8-diazabicyclo[3.2.1]octan-3-yl)-7-(8-chloronaphthalen-1-yl)-8-fluoropyrido[4,3-d]pyrimidin-2-yl)oxy)methyl)-1-methylpyrrolidin-3-yl (2-((4-hydroxybenzyl)oxy)ethyl)carbamate], over 16.7 µM.
The compound `C#Cc1cccc2cc(O)cc(-c3ncc4c(N5CC6CCC(C5)N6)nc(OC[C@@]56CCCN5C[C@H](OC)C6)nc4c3F)c12` (stereo in doubt) [Example 410, 4-(4-((1R,5S)-3,8-diazabicyclo[3.2.1]octan-3-yl)-8-fluoro-2-((2-methoxytetrahydro-1H-pyrrolizin-7a(5H)-yl)methoxy)pyrido[4,3-d]pyrimidin-7-yl)-5-ethynylnaphthalen-2-ol] returned a half-inhibitory concentration (IC50) of 0.008 µM.
For `Cn1ccnc1CCOc1nc(N2C[C@H]3CC[C@@H](C2)N3)c2cnc(-c3cccc4cccc(Cl)c34)c(F)c2n1` [Example 114, 4-((1R,5S)-3,8-diazabicyclo[3.2.1]octan-3-yl)-7-(8-chloronaphthalen-1-yl)-8-fluoro-2-(2-(1-methyl-1H-imidazol-2-yl)ethoxy)pyrido[4,3-d]pyrimidine] the value was 10.3 µM; for `O[C@H]1CN2CCC[C@]2(COc2nc(N3CC4CCC(C3)N4)c3cnc(-c4cccc5cccc(Cl)c45)c(F)c3n2)C1` (stereo in doubt) [Example 224, 7a-(((4-((1R,5S)-3,8-diazabicyclo[3.2.1]octan-3-yl)-7-(8-chloronaphthalen-1-yl)-8-fluoropyrido[4,3-d]pyrimidin-2-yl)oxy)methyl)hexahydro-1H-pyrrolizin-2-ol bis-hydrochloride], 6.38 µM.
As to `Cn1ccnc1COc1nc(N2C[C@H]3CC[C@@H](C2)N3)c2cnc(-c3cc(O)cc4ccccc34)c(F)c2n1` [Example 104, 4-(4-((1R,5S)-3,8-diazabicyclo[3.2.1]octan-3-yl)-8-fluoro-2-((1-methyl-1H-imidazol-2-yl)methoxy)pyrido[4,3-d]pyrimidin-7-yl)naphthalen-2-ol], the IC50 was over 16.7 µM.
As for `Fc1c(-c2c3ccccc3cc3[nH]ncc23)ncc2c(N3C[C@H]4CC[C@@H](C3)N4)nc(OCC34CCCN3CCC4)nc12` [Example 257, 4-(4-((1R,5S)-3,8-diazabicyclo[3.2.1]octan-3-yl)-8-fluoro-2-((hexahydro-1H-pyrrolizin-7a-yl)methoxy)pyrido[4,3-d]pyrimidin-7-yl)-1H-benzo[f]indazole], the figure is 0.531 µM.
As for `Fc1c(-c2cccc3cccc(Cl)c23)ncc2c(N3C[C@H]4CC[C@@H](C3)N4)nc(OCC34CCCN3CC(F)(F)C4)nc12` (stereo partly drawn) [Example 93, 4-((1R,5S)-3,8-diazabicyclo[3.2.1]octan-3-yl)-7-(8-chloronaphthalen-1-yl)-2-((2,2-difluorotetrahydro-1H-pyrrolizin-7a(5H)-yl)methoxy)-8-fluoropyrido[4,3-d]pyrimidine bis(2,2,2-trifluoroacetate)], the IC50 is over 16.7 µM.
Consider `Oc1cc(Cl)c(C(F)(F)F)c(-c2ncc3c(N4C[C@H]5CC[C@@H](C4)N5)nc(OC[C@@]45CCCN4C[C@H](F)C5)nc3c2F)c1` [Example 284, 3-(4-((1R,5S)-3,8-diazabicyclo[3.2.1]octan-3-yl)-8-fluoro-2-(((2R,7aS)-2-fluorohexahydro-1H-pyrrolizin-7a-yl)methoxy)pyrido[4,3-d]pyrimidin-7-yl)-5-chloro-4-(trifluoromethyl)phenol], for which inhibition was half-maximal at 0.0174 µM (IC50).
The compound `CN(C)C(=O)NC[C@H]1CC[C@@]2(COc3nc(N4CC5CCC(C4)N5)c4cnc(-c5cccc6cccc(Cl)c56)c(F)c4n3)CCCN12` [Example 412, 3-((7a-(((4-(3,8-diazabicyclo[3.2.1]octan-3-yl)-7-(8-chloronaphthalen-1-yl)-8-fluoropyrido[4,3-d]pyrimidin-2-yl)oxy)methyl)hexahydro-1H-pyrrolizin-3-yl)methyl)-1,1-dimethylurea] gave an IC50 of 4.78 µM. This IC50 lies about 270-fold higher than the previous one.
The compound `Oc1ccc(OC(F)(F)F)c(-c2ncc3c(N4CC5CCC(C4)N5)nc(OCC45CCCN4C[C@H](F)C5)nc3c2F)c1` (mixture of isomers) [Example 340, 3-(4-((1R,5S)-3,8-diazabicyclo[3.2.1]octan-3-yl)-8-fluoro-2-((2-fluorotetrahydro-1H-pyrrolizin-7a(5H)-yl)methoxy)pyrido[4,3-d]pyrimidin-7-yl)-4-(trifluoromethoxy)phenol] displayed a half-maximal inhibitory concentration (IC50) of 0.0515 µM. Compared with the last compound, the IC50 is about 93-fold lower.
`CN1C[C@H](F)C[C@H]1COc1nc(N2C[C@H]3CC[C@@H](C2)N3)c2cnc(-c3cccc4cccc(Cl)c34)c(F)c2n1` [Example 115, 4-((1R,5S)-3,8-diazabicyclo[3.2.1]octan-3-yl)-7-(8-chloronaphthalen-1-yl)-8-fluoro-2-(((2S,4R)-4-fluoro-1-methylpyrrolidin-2-yl)methoxy)pyrido[4,3-d]pyrimidine] registered a half-maximal inhibitory concentration (IC50) of 9.51 µM.
`Oc1cc(-c2ncc3c(N4C[C@H]5CC[C@@H](C4)N5)nc(N4CC5(CCOCC5)C4)nc3c2F)c2ccccc2c1` [Example 74, 4-(4-((1R,5S)-3,8-diazabicyclo[3.2.1]octan-3-yl)-8-fluoro-2-(7-oxa-2-azaspiro[3.5]nonan-2-yl)pyrido[4,3-d]pyrimidin-7-yl)naphthalen-2-ol] had a half-maximal inhibitory concentration (IC50) of 5.47 µM.
For `CN(C)C1(C)CN(c2nc(N3C[C@H]4CC[C@@H](C3)N4)c3cnc(-c4cccc5cccc(Cl)c45)c(F)c3n2)C1` [Example 127, 1-(4-((1R,5S)-3,8-diazabicyclo[3.2.1]octan-3-yl)-7-(8-chloronaphthalen-1-yl)-8-fluoropyrido[4,3-d]pyrimidin-2-yl)-N,N,3-trimethylazetidin-3-amine] the value was over 16.7 µM.
`CN1CCC[C@H]1COc1nc(N2CC3CCC(C(N)=O)(C2)N3)c2cnc(-c3cc(O)cc4ccccc34)c(F)c2n1` (stereo partly drawn) [Example 159, 3-(8-fluoro-7-(3-hydroxynaphthalen-1-yl)-2-(((S)-1-methylpyrrolidin-2-yl)methoxy)pyrido[4,3-d]pyrimidin-4-yl)-3,8-diazabicyclo[3.2.1]octane-1-carboxamide bis(2,2,2-trifluoroacetate)] yielded an IC50 of over 16.7 µM.
For `Fc1c(-c2cccc3cccc(Cl)c23)ncc2c(N3C[C@H]4CC[C@@H](C3)N4)nc(OCCCN3C[C@@H]4C[C@H]3CO4)nc12` [Example 103, (1S,4S)-5-(3-((4-((1R,5S)-3,8-diazabicyclo[3.2.1]octan-3-yl)-7-(8-chloronaphthalen-1-yl)-8-fluoropyrido[4,3-d]pyrimidin-2-yl)oxy)propyl)-2-oxa-5-azabicyclo[2.2.1]heptane], the IC50 is over 16.7 µM.
On to `CC(C)c1ccccc1-c1ncc2c(N3CC4CCC(C3)N4)nc(OCC34CCCN3C[C@H](F)C4)nc2c1F` (stereo partly drawn) [Example 348, 4-((1R,5S)-3,8-diazabicyclo[3.2.1]octan-3-yl)-8-fluoro-2-((2-fluorotetrahydro-1H-pyrrolizin-7a(5H)-yl)methoxy)-7-(2-isopropylphenyl)pyrido[4,3-d]pyrimidine], for which the concentration for half-maximal inhibition (IC50) turned out to be 0.779 µM.
Turning to `Oc1cc(Cl)c(C2CC2)c(-c2ncc3c(N4C[C@H]5CC[C@@H](C4)N5)nc(OC[C@@]45CCCN4C[C@H](F)C5)nc3c2F)c1` [Example 283, 3-(4-((1R,5S)-3,8-diazabicyclo[3.2.1]octan-3-yl)-8-fluoro-2-(((2R,7aS)-2-fluorohexahydro-1H-pyrrolizin-7a-yl)methoxy)pyrido[4,3-d]pyrimidin-7-yl)-5-chloro-4-cyclopropylphenol], the IC50 came out at 0.007 µM.
The compound `Cc1cccc(-c2ncc3c(N4C[C@H]5CC[C@@H](C4)N5)nc(OCC45CCCN4CCC5)nc3c2F)c1Cl` [Example 276, 4-((1R,5S)-3,8-diazabicyclo[3.2.1]octan-3-yl)-7-(2-chloro-3-methylphenyl)-8-fluoro-2-((hexahydro-1H-pyrrolizin-7a-yl)methoxy)pyrido[4,3-d]pyrimidine] showed an IC50 of 3.79 µM.

By IC50 is commonly meant the midpoint of a concentration-inhibition curve. Read a high IC50 as lower potency.
